Assay [1] in a line: ADAM10 inhibitors, peptide cleavage, dose response, biochemical, QFRET (AID 743254).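 Note: ADAM10 enzyme with the DM2 quenched FRET peptide as substrate; EDANS fluorescence gain as the protease cuts the substrate; inhibitor potency against ADAM10 proteolytic activity.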
Assay [2] has as its target Disintegrin and metalloproteinase domain-containing protein 17 (Homo sapiens, UniProt P78536). Kind of assay: ADAM17 protease inhibitors, dose response, counter-screen for ADAM10 exosite inhibitor project, biochemical, quenched FRET substrate (AID 743253).
Another assay concerns the target Prothrombin (Homo sapiens, UniProt P00734). The experiment in a line: Thrombin 1536 HTS Dose Response Confirmation. [Related pubchem assays: 1046 (Thrombin 1536 HTS; hits were confirmed in this assay)]. The assay is classed as functional.
Assay [3] in a line: inhibitors of intracellular T. cruzi replication, confirmation, NIH3T3 host cells, beta-gal luminescence (AID 2044).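 Note: intracellular parasites grown in NIH/3T3 mouse fibroblasts as host cells; luminescent beta-galactosidase reporter signal from transgenic T. cruzi replicating inside host cells; inhibitors lower the luminescence signal.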 Format: functional, cell-based.
Assay [4] can be described thus: cytotoxicity toward NIH3T3 fibroblasts, dose response, counter-screen, cell-based, ATP luminescence, mouse fibroblasts (AID 2010).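 Note: cells exposed to compound for about 90 hours before reading.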 Format: functional.
The target of assay [5] is Glyceraldehyde-3-phosphate dehydrogenase (Homo sapiens, UniProt P04406).
The target in assay [6] is T1, Bcl-2-related protein A1 (Mus musculus, UniProt Q07440).
T1 sequence (Q07440 whole entry): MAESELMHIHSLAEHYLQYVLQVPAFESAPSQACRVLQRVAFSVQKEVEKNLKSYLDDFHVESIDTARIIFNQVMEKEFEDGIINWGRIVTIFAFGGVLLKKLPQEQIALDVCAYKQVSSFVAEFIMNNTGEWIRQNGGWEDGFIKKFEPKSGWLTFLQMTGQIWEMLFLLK
Kind of assay: Bfl-1 inhibitors blocking BH3 peptide binding, confirmation, biochemical, TR-FRET, mouse Bfl-1 (AID 621).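 Note: TR-FRET binding of GST-Bfl-1 to FITC-labelled Bid peptide via terbium antibody.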

In assay [7] the target is T1, Bcl-2-related protein A1. The experiment in a line: Bfl-1 binding inhibitors, SAR follow-up, biochemical, fluorescence polarization (AID 1070).
The nature of assay [8]: inhibitors of Vif binding to APOBEC3G peptide, primary screen, biochemical, TR-FRET, GST-Vif 1-94, biotin-A3G peptide, dose response retest (AID 1117319).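 Note: TR-FRET signal of purified GST-Vif binding a biotinylated A3G peptide; inhibitors lower the FRET signal by blocking Vif and A3G binding.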 The assay is classed as functional.
The target in assay [9] is E3 ubiquitin-protein ligase Mdm2 (Homo sapiens, UniProt Q00987). Kind of assay: enhancers of MDM2-luciferase reporter signal, concentration-effect titration, project on inhibitors of MDM2 ubiquitin ligase, cellular assay, luminescent readout, 384-well plate format (AID 1394).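 Note: MDM2 E3 inhibitors raise luminescence so EC50 is for signal enhancement.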 The assay is classed as functional.
For assay [10], the target named is T2, Tyrosine-protein phosphatase non-receptor type 7 (Homo sapiens, UniProt P35236).
T2 sequence (P35236 whole entry): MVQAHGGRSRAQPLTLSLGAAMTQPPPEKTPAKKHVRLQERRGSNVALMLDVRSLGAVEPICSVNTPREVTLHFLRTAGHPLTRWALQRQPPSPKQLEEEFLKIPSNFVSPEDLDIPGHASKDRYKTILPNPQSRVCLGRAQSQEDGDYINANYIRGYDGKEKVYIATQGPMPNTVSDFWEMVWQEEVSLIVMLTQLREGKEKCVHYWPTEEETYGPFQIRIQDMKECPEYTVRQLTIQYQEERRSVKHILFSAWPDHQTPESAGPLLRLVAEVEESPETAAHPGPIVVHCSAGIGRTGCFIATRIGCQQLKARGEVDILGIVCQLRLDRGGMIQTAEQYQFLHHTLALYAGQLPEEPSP
The experiment in a line: inhibitors of human HePTP phosphatase, […], biochemical, absorbance, leukemia target (AID 521). Format: functional.

The source of these data is ChEMBL document CHEMBL1201862, “PubChem BioAssay data set” (2004).

Structures are written as SMILES. Calls of active or inactive are those of the source.

Disintegrin and metalloproteinase domain-containing protein 17, sequence (P78536 whole entry, the tested form may be a part): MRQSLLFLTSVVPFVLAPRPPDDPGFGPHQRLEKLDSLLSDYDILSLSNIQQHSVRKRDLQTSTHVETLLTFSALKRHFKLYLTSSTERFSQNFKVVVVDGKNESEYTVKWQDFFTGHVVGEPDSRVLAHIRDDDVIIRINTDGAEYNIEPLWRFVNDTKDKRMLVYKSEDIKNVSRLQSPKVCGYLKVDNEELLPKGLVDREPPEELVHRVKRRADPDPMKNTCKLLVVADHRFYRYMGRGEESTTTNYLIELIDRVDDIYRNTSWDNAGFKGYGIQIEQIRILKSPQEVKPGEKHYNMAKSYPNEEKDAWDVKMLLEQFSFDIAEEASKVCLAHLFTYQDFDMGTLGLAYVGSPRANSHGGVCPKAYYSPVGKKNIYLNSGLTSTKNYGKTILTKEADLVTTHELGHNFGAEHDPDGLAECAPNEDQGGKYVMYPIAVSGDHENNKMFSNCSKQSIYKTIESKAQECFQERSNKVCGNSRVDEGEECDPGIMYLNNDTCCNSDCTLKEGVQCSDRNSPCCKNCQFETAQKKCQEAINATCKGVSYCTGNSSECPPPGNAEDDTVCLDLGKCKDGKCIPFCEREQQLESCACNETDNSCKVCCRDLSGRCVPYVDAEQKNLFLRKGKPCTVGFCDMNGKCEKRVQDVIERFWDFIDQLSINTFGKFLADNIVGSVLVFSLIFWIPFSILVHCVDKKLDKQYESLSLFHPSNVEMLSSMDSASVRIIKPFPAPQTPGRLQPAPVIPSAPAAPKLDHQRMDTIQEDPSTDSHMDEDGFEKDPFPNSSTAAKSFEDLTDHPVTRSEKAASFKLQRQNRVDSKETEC
E3 ubiquitin-protein ligase Mdm2, sequence (Q00987 whole entry): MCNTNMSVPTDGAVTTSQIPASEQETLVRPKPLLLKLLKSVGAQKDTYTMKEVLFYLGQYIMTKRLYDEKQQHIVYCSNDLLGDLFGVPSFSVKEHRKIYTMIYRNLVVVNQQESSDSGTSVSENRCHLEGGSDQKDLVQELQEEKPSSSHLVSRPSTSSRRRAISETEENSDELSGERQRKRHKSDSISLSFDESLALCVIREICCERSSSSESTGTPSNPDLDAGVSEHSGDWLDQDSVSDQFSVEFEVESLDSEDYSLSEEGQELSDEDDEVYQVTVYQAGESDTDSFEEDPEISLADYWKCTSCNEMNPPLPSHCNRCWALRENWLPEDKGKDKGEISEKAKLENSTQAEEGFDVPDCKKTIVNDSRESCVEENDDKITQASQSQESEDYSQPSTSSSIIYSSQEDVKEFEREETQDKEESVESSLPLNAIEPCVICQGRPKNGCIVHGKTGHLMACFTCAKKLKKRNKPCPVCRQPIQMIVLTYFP
Glyceraldehyde-3-phosphate dehydrogenase, sequence (P04406 whole entry): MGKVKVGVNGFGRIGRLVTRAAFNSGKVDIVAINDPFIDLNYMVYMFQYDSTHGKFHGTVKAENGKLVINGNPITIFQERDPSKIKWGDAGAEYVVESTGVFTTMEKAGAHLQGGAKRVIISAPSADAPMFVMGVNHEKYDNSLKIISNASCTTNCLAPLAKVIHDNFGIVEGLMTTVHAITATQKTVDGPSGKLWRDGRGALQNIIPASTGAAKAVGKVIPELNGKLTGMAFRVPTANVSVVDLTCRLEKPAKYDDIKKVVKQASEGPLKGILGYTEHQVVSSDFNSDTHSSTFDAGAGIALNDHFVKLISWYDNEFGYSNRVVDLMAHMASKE

As for `Cc1ccc(-n2c(Cc3cccs3)nnc2SCC(=O)Nc2ccc(OCc3ccccc3)cc2)cc1`, the IC50 in [1] and in assay [2] was > 69.5 µM (inactive) each time. In the case of `COCCNc1nnc(SCC(=O)c2c[nH]c3ccccc23)s1`, at Prothrombin, the IC50 was > 50 µM (not active). Regarding `Clc1ccc(SCCOCCN2CCc3ccccc3C2)cc1`, the EC50 in assay [3] was < 0.1 µM (active); in assay [4] it was > 60 µM (not active); in “cells”, 0.081 µM (active). For the compound `Cc1ccc(Cl)c(N2C(=O)C(Cl)=C(N3CCOCC3)C2=O)c1Cl`, the figures for the IC50 (in assay [5]; at Bcl-2-related protein A1 [6]; at Bcl-2-related protein A1 [7]) were > 10 µM (inconclusive), > 100 µM (not active) and > 100 µM (not active), respectively.

As for `CN(C)c1ccc(/C=N\NC(=O)c2csnn2)cc1`, the half-maximal inhibitory concentration (IC50) in [8] is > 100 µM (active). Take `CCc1nc(O)c2ccsc2n1`: the IC50 against Prothrombin is recorded as > 50 µM (not active).

Consider `COC(=O)C1=C(C(=O)OC)[C@@H]2N(C)c3ccc(OC)cc3[C@@]23C[C@@H](C(=O)OC)NC3=N1`, for which the EC50 in [9] is 1.09 µM (not active).

For `Cn1c(=O)oc2cc(S(=O)(=O)N3CCCC(C(=O)N4CCn5c4nc4ccccc45)C3)ccc21` (stereo unspecified), in assay [10], the IC50 is recorded as > 100 µM (not active). `O=C(O)c1ccc(S(=O)(=O)c2ccc3c(c2)C(=O)N(Cc2ccco2)C3=O)cc1`: the IC50 in [8] is > 100 µM (active). For the compound `CN(C)c1ccc(C(CNS(=O)(=O)c2ccc(F)cc2)c2c[nH]c3ccccc23)cc1` (stereo unspecified), the IC50 in assay [1] and in assay [2] was > 69.5 µM (inactive) in each case.
